# Read-outs that look alike come from different tables or passages of the source.
# Assays:
# Format in all cases: cell-based, human
# Chang cells [1] = test: MTT cytotoxicity assay, Chang; settings: for IC50: read-out: IC50 from MTT
# Method: HepG2 and Chang cells were plated at 1 × 10^4 cells/well by adding 200 μL of a 5 × 10^4 cells/mL suspension to each well of a 96-well tissue culture plate. The plate was incubated for a sufficient time to assure attachment and 40% to 60% confluency. […] The last row was left as an untreated control. The plates were incubated at 37 °C, 5% CO2, for 24, 48 and 72 hours, respectively. After incubation with compounds, the media was aspirated off and replaced with fresh media. Then, MTT solution (20 μL) for a total volume of 200 μL was added in every well and incubated for 4 to 6 hours at 37 °C with 5% CO2. After that, MTT-containing medium was removed gently and replaced with DMSO (200 μL per well) to mix the formazan crystals until dissolved. The plates were read on microtiter plate reader at 570 nm. For each compound tested, the IC50 (concentration of drug needed to inhibit cell growth by 50%) is generated from the dose-response curves for each cell line.
# HepG2 cells [2] = test: BrdU cell proliferation ELISA, HepG2
# Method: To further confirm the potential of goniothalamin-induced cell death HepG2 cells, a BrdU cell proliferation assay was performed. The cell proliferation percentage was measured by the incorporation of the thymidine analogue bromodeoxyuridine into DNA. In untreated HepG2, the absorbances (OD) at 450 nm wavelength were 1.445, 2.188 and 2.553 for 24, 48 and 72 hours, respectively. The cell proliferation rate was reduced in a concentration dependent manner after the addition of goniothalamin, compared to untreated control cells after all the times (Figure 3). […] Inhibition of DNA synthesis at the highest concentration (150 µM) is also time-dependent and is the most severe.
# To confirm anti-proliferative effects in goniothalamin-treated cells, BrdU cell proliferation kit was used. HepG2 and Chang cells were seeded at 1.5 × 10^5 cells/mL in a final volume of 100 μL in a 96-well culture dish and incubated overnight to allow the cells to adhere to the dish. Each sample was assayed in triplicate. Besides, the control samples include a blank (no cells) and background (cells without BrdU) was also prepared. […] Then, BrdU label (20 μL, diluted by 1/2,000 in media) was added to each well and incubated for 24 h at 37 °C. The media was discarded and replaced by fix/denaturing solution (200 μL). The plate was incubated for 30 min at room temperature. The fix/denaturing solution was removed by inverting the plate. Then, BrdU antibody (100 μL, diluted by 1/100 in dilution buffer) was added to each well and left for 1 hour at room temperature. The cells were washed 3 times with wash buffer. After that, secondary antibody (100 μL, anti-mouse IgG HRP conjugated) was added to each well for 30 min. The washing step was done three times with wash buffer and once with distilled water. The distilled water was removed and substrate solution (100 μL) was added to each well. The plate was left for 15 min at room temperature in the dark condition. Finally, stop solution (100 μL) was added to the wells and absorbance measured at 450–540 nm.
# HepG2 cells [3] = test: Cell cycle PI analysis by flow cytometry, HepG2
# Method: The ability of a substance to affect specific phases of the cell cycle may provide clues as to its mechanism(s) of action. To determine the effects of goniothalamin on the cell cycle, HepG2 cells were treated with IC50 levels of goniothalamin (determined from the MTT assay) for 24, 48 and 72 hours, respectively. The cells were stained with PI and the DNA contents analyzed by flow cytometry.
# (§1) The treated cells were trypsinized and washed with PBS. After centrifugation, the supernatant was removed. Then, 1 × 10^6 cells were harvested and fixed in ice-cold ethanol (70%). The fixed cells were centrifuged at high speed (180 × g) for 10 minutes to adequately pellet down the cells that were suspended in the ethanol. The pellet was washed by the ice-cold PBS and then centrifuged again at 180 × g for 10 minutes. The final pellet was resuspended with 1 mL of RNase and incubated at 37 °C for 30 minutes. At the end of incubation, DNA binding dye PI (1 mg/mL) was added to give a final concentration of 50 µg/mL. The mixture was incubated at room temperature for 10 min in the dark. Data acquisition and analysis were performed in by flow cytometry FACS Calibur flow cytometer (Becton Dickinson, Franklin Lakes, NJ, USA) using CellQuest 3.3 software.
# Chang cells [4] = test: Cell cycle PI analysis by flow cytometry, Chang
# Method: The effect of goniothalamin on the cell cycle distribution of non-malignant Chang cells was also assessed. […] Accordingly, goniothalamin induced a marked apoptosis in a time-dependent manner at IC50 concentrations. As expected, the increase in the apoptotic population was associated with a concomitant enlargement of the pre-phase population, as observed in cell cycle analysis.
# as §1
# [5] = HepG2, 24h, at IC50 (goniothalamin 9.2 µM; doxorubicin 2.2 µM)
# [6] = HepG2, 48h, at IC50 (goniothalamin 8.3 µM; doxorubicin 4.3 µM)
# [7] = HepG2, 72h, at IC50 (goniothalamin 4.6 µM; doxorubicin […])
# [8] = 24h, at IC50 (goniothalamin 79.10 µM; doxorubicin 0.83 µM)
# [9] = 48h, at IC50 (goniothalamin 63.75 µM; doxorubicin 0.41 µM)
# [10] = 72h, at IC50 (goniothalamin 35.01 µM; doxorubicin 0.28 µM)
smiles,measurement,setting,value
"O=C1C=CC[C@H](/C=C/c2ccccc2)O1 [Goniothalamin, 5-hydroxy-7-phenylhepta-2,6-dienoic acid lactone]",decrease of cell growth vs untreated control,"Chang cells [1]; 37.5 μM, 24 hours",39%
same,decrease of cell growth vs untreated control,"Chang cells [1]; 37.5 μM, 48 hours",44%
same,decrease of cell growth vs untreated control,"Chang cells [1]; 37.5 μM, 72 hours",54%
same,decrease of cell growth vs untreated control,"Chang cells [1]; 75 μM, 24 hours",approximately 49%
same,decrease of cell growth vs untreated control,"Chang cells [1]; 75 μM, 48 hours",~53%
same,decrease of cell growth vs untreated control,"Chang cells [1]; 75 μM, 72 hours",~63%
same,IC50,Chang cells [1]; 72 hours,35 µM
same,IC50,"Chang cells [1]; Homo sapiens, 24 h",79.1 µM
same,IC50,"Chang cells [1]; Homo sapiens, 48 h",63.8 µM
same,IC50,"Chang cells [1]; Homo sapiens, 72 h",35 µM
same,OD value at 450 nm (BrdU incorporation),"HepG2 cells [2]; HepG2, IC50 concentration, 24 hours, untreated 1.445",0.635
same,OD value at 450 nm (BrdU incorporation),"HepG2 cells [2]; HepG2, IC50 concentration, 72 hours, untreated 2.553",0.372
same,cell proliferation as compared to control (BrdU),"HepG2 cells [2]; HepG2, lowest concentration (2.3 µL as printed), 72 hours",19.8%
same,OD value at 450 nm (BrdU incorporation),"HepG2 cells [2]; HepG2, lowest concentration, 72 hours, untreated 2.553",0.505
same,G0/G1,HepG2 cells [3]; [5],68.92 ± 1.27%
same,G2+M,HepG2 cells [3]; [5],5.94 ± 0.22%
same,S,HepG2 cells [3]; [5],7.68 ± 0.12%
same,SubG0/G1,HepG2 cells [3]; [5],17.44 ± 1.67%
same,G0/G1,HepG2 cells [3]; [6],39.71 ± 3.50%
same,G2+M,HepG2 cells [3]; [6],5.67 ± 4.13%
same,S,HepG2 cells [3]; [6],8.03 ± 0.29%
same,SubG0/G1,HepG2 cells [3]; [6],46.59 ± 2.79%
same,G0/G1,HepG2 cells [3]; [7],31.79 ± 5.82%
same,G2+M,HepG2 cells [3]; [7],2.31 ± 4.19%
same,S,HepG2 cells [3]; [7],7.07 ± 0.18%
same,SubG0/G1,HepG2 cells [3]; [7],58.83 ± 2.09%
same,SubG0/G1,"HepG2 cells [3]; HepG2, 72h, at IC50 (goniothalamin 4.6 µM; doxorubicin […]), listed as goniothalamin",59%
same,G0/G1,Chang cells [4]; [8],55.08 ± 3.60%
same,G2+M,Chang cells [4]; [8],14.89 ± 5.53%
same,S,Chang cells [4]; [8],12.65 ± 2.79%
same,SubG0/G1,Chang cells [4]; [8],17.38 ± 7.29%
same,G0/G1,Chang cells [4]; [9],58.68 ± 9.45%
same,G2+M,Chang cells [4]; [9],2.5 ± 5.89%
same,S,Chang cells [4]; [9],5.82 ± 0.16%
same,SubG0/G1,Chang cells [4]; [9],33.00 ± 3.40%
same,G0/G1,Chang cells [4]; [10],11.60 ± 0.07%
same,G2+M,Chang cells [4]; [10],2.5 ± 0.44%
same,S,Chang cells [4]; [10],4.91 ± 0.13%
same,SubG0/G1,Chang cells [4]; [10],80.99 ± 0.64%
